Assay results taken from US20110152267A1, “Compositions and Methods for Treating Hyperproliferative Disorders” (Texas Tech University System, priority 2009, published 2011).

What was measured:
Type in all cases: cell-based, human
[1] = test system: HT-29 colorectal adenocarcinoma cell line; experiment: DIMSCAN cytotoxicity, fenretinide + L-threo-sphinganines 3:1 (Example B10); conditions: 96 h
Experimental: (§1) Cytotoxicity Assay—Once again, cytotoxicity is determined using the DIMSCAN assay system (R. Proffitt et al., Cytometry 24, 204-213 (1996); T. Frgala et al., Mol Cancer Ther. 6:886-97, 2007). The system employs digital imaging microscopy to quantify viable cells, which selectively accumulate fluorescein diacetate to become brightly fluorescent. The system is capable of measuring cytotoxicity over a 4-5 log dynamic range by quenching the residual fluorescence of dead and dying cells with eosin Y and quantifying the total fluorescence of viable cells using digital thresholding. Measured fluorescence is directly proportionate to the number of viable cells. A comparison of the total fluorescence of a drug-treated cell population to the fluorescence of a similar number of untreated cells yields a survival fraction. In brief, 2000 to 10,000 cells/well (depending on size and growth rates) are replicate plated into 60 wells of a 96-well tissue culture plate in 0.1 mL of whole medium and allowed to attach overnight. Drug(s) are then added in 0.05 mL of whole medium to the final concentrations indicated. Drugs (fenretinide, and various chain length L-threo-sphinganines) were tested both as single agents and in a 3:1 ratio of fenretinide:sphinganine. C18-L-threo-sphinganine, or “safingol,” was also tested and results shown for reference. There are 12 wells treated per drug concentration. Twelve wells receive drug vehicle-only to the appropriate final concentration and serve as controls for the plate. Cells are incubated for 96 hours at 37° C. in ambient air with 5% CO2. Fluorescein diacetate is then added to each well in 0.05 mL media to a final concentration of 8 microgram/mL. Cells are incubated for a further 15 minutes at 37° C. and 0.03 mL of 0.5% eosin Y is added to each well. Total fluorescence of viable cells is then measured by digital imaging microscopy. Results were graphed as the ratio of the fluoresecence of drug-treated wells to non-drug treated control wells (i.e., Survival Fraction). All tests were performed at least twice. Representative results are shown.
(§2) The Combination Index (CI) is a term to describe mathematical modeling of the pharmacologic effects on cytotoxicity (cell death) of two drugs in combination based. Cytotoxic “synergy” is defined as a cell death affect which is greater than would be expected from a simple product of the single agent cytotoxicities alone (i.e. an “additive” effect). By Chou-Talalay analysis, a CI<0.9 on a Fraction Affected (“Fa”, i.e. fraction of cells killed) indicates synergy, with smaller numbers indicating greater synergy; a CI of 0.9-1.1 signifies an additive or near-additive effect; and a CI>1.1 means the drug combination is antagonistic.
Fenretinide and L-threo-sphinganines tested in human colorectal adenocarcinoma (colon cancer) cell line, HT-29.

[2] = test system: PANC-1 pancreatic adenocarcinoma cell line; experiment: DIMSCAN cytotoxicity, fenretinide + L-threo-sphinganines 3:1 (Example B18)
Experimental: as §1, §2
Fenretinide and L-threo-sphinganines tested in human pancreatic adenocarcinoma (pancreas cancer) cell line, PANC-1.

[3] = test system: U-266 Multiple Myeloma cell line; experiment: DIMSCAN cytotoxicity, fenretinide + L-threo-sphinganines 3:1 (Example B3); conditions: 96 h
Experimental: as §1, §2
Fenretinide and L-threo-sphinganines tested in human Multiple Myeloma (a cancer of the blood and bone marrow) cell line, U-266.

[4] = test system: A-2058 melanoma cell line; experiment: DIMSCAN cytotoxicity, fenretinide + L-threo-sphinganines 3:1 (Example B11); conditions: 96 h
Experimental: as §1, §2
Fenretinide and L-threo-sphinganines tested in human melanoma (skin cancer) cell line, A-2058.

[5] = test system: A-549 lung adenocarcinoma cell line; experiment: DIMSCAN cytotoxicity, fenretinide + L-threo-sphinganines 3:1 (Example B13); conditions: 96 h
Experimental: as §1, §2
Fenretinide and L-threo-sphinganines tested in human lung adenocarcinoma (lung cancer) cell line, A-549.

[6] = test system: OVCAR-8 ovarian adenocarcinoma cell line; experiment: DIMSCAN cytotoxicity, fenretinide + L-threo-sphinganines 3:1 (Example B15); set-up: key to CI (Combination Index): Chou-Talalay CI: <0.9 synergy, 0.9-1.1 additive, >1.1 antagonism; conditions: 96 h
Experimental: as §1, §2
Fenretinide and L-threo-sphinganines tested in human ovarian adenocarcinoma (ovarian cancer) cell line, OVCAR-8.

[7] = test system: SJ-GBM2 Glioblastoma multiforme cell line; experiment: DIMSCAN cytotoxicity, fenretinide + L-threo-sphinganines 3:1 (Example B7); set-up: key to CI (Combination Index): Chou-Talalay CI: <0.9 synergy, 0.9-1.1 additive, >1.1 antagonism; conditions: 96 h
Experimental: as §1, §2
Fenretinide and L-threo-sphinganines tested in human Glioblastoma multiforme (brain cancer) cell line, SJ-GBM2.

[8] = test system: PC-3 prostate adenocarcinoma cell line; experiment: DIMSCAN cytotoxicity, fenretinide + L-threo-sphinganines 3:1 (Example B17)
Experimental: as §1, §2
Fenretinide and L-threo-sphinganines tested in human prostate adenocarcinoma (prostate cancer) cell line, PC-3.

[9] = 4-HPR 1.5 μM + L-threo-sphinganine 0.5 μM
[10] = 4-HPR 3 μM + L-threo-sphinganine 1 μM
[11] = 4-HPR 6 μM + L-threo-sphinganine 2 μM
[12] = 4-HPR 9 μM + L-threo-sphinganine 3 μM

## CCCCCCCCCCCCCCCCCC[C@H](O)[C@@H](N)CO [C21]
[1]; [9]
  CI (Combination Index): 1.2
  Fa (fraction affected): 0.149
[1]; [10]
  CI (Combination Index): 1.2
  Fa (fraction affected): 0.630
[1]; [11]
  CI (Combination Index): 1.8
  Fa (fraction affected): 0.857
[1]; [12]
  CI (Combination Index): 2.3
  Fa (fraction affected): 0.918
[2]; [9]
  CI: 2.5
  Fa: 0.111
[2]; [10]
  CI: 2.9
  Fa: 0.239
[2]; [11]
  CI: 1.6
  Fa: 0.784
[2]; [12]
  CI: 0.4
  Fa: 0.994
[3]; [9]
  CI (Combination Index): 1.4
  Fa (fraction affected): 0.225
[3]; [10]
  CI (Combination Index): 1.5
  Fa (fraction affected): 0.658
[3]; [11]
  CI (Combination Index): 0.6
  Fa (fraction affected): 0.996
[3]; [12]
  CI (Combination Index): >0.1
  Fa (fraction affected): 1
[4]; [9]
  CI (Combination Index): 0.7
  Fa (fraction affected): 0.016
[4]; [10]
  CI (Combination Index): 1.4
  Fa (fraction affected): 0.016
[4]; [11]
  CI (Combination Index): 1.9
  Fa (fraction affected): 0.333
[4]; [12]
  CI (Combination Index): 1.9
  Fa (fraction affected): 0.955
[5]; [9]
  CI (Combination Index): 0.9
  Fa (fraction affected): 0.078
[5]; [10]
  CI (Combination Index): 2.6
  Fa (fraction affected): 0.044
[5]; [11]
  CI (Combination Index): 0.8
  Fa (fraction affected): 0.51
[5]; [12]
  CI (Combination Index): 0.4
  Fa (fraction affected): 0.972
[6]; [9]
  CI (Combination Index): 0.1
  Fa (fraction affected): 0.626
[6]; [10]
  CI (Combination Index): 0.1
  Fa (fraction affected): 0.870
[6]; [11]
  CI (Combination Index): 0.1
  Fa (fraction affected): 0.977
[6]; [12]
  CI (Combination Index): 0.2
  Fa (fraction affected): 0.975
[7]; [9]
  CI (Combination Index): 1.4
  Fa (fraction affected): 0.131
[7]; [10]
  CI (Combination Index): 1.9
  Fa (fraction affected): 0.470
[7]; [11]
  CI (Combination Index): 2.1
  Fa (fraction affected): 0.946
[7]; [12]
  CI (Combination Index): 2.0
  Fa (fraction affected): 0.996
[8]; [9]
  CI: 1.7
  Fa: 0.215
[8]; [10]
  CI: 1.4
  Fa: 0.350
[8]; [11]
  CI: 1.6
  Fa: 0.479
[8]; [12]
  CI: 0.9
  Fa: 0.738

## CCCCCCCCCCCC[C@H](O)[C@@H](N)CO [C15]
[1]; [9]
  CI (Combination Index): 2.0
  Fa (fraction affected): 0.204
[1]; [10]
  CI (Combination Index): 0.8
  Fa (fraction affected): 0.660
[1]; [11]
  CI (Combination Index): 1.1
  Fa (fraction affected): 0.859
[1]; [12]
  CI (Combination Index): 0.8
  Fa (fraction affected): 0.976
[2]; [9]
  CI: 2.9
  Fa: 0.078
[2]; [10]
  CI: 2.2
  Fa: 0.205
[2]; [11]
  CI: 1.7
  Fa: 0.486
[2]; [12]
  CI: 0.2
  Fa: 0.978
[3]; [9]
  CI (Combination Index): 1.2
  Fa (fraction affected): 0.085
[3]; [10]
  CI (Combination Index): 1.5
  Fa (fraction affected): 0.241
[3]; [11]
  CI (Combination Index): 1.2
  Fa (fraction affected): 0.697
[3]; [12]
  CI (Combination Index): 0.9
  Fa (fraction affected): 0.929
[4]; [9]
  CI (Combination Index): 0.5
  Fa (fraction affected): 0.053
[4]; [10]
  CI (Combination Index): 0.9
  Fa (fraction affected): 0.106
[4]; [11]
  CI (Combination Index): 1.6
  Fa (fraction affected): 0.262
[4]; [12]
  CI (Combination Index): 1.7
  Fa (fraction affected): 0.867
[5]; [9]
  CI (Combination Index): 1.9
  Fa (fraction affected): 0.000
[5]; [10]
  CI (Combination Index): 2.1
  Fa (fraction affected): 0.000
[5]; [11]
  CI (Combination Index): 0.9
  Fa (fraction affected): 0.044
[5]; [12]
  CI (Combination Index): 0.8
  Fa (fraction affected): 0.342
[6]; [9]
  CI (Combination Index): 0.1
  Fa (fraction affected): 0.668
[6]; [10]
  CI (Combination Index): 0.1
  Fa (fraction affected): 0.854
[6]; [11]
  CI (Combination Index): 0.1
  Fa (fraction affected): 0.977
[6]; [12]
  CI (Combination Index): 0.2
  Fa (fraction affected): 0.977
[7]; [9]
  CI (Combination Index): 1.7
  Fa (fraction affected): 0.086
[7]; [10]
  CI (Combination Index): 1.1
  Fa (fraction affected): 0.301
[7]; [11]
  CI (Combination Index): 0.9
  Fa (fraction affected): 0.765
[7]; [12]
  CI (Combination Index): 1.0
  Fa (fraction affected): 0.953
[8]; [9]
  CI: 0.6
  Fa: 0.200
[8]; [10]
  CI: 0.9
  Fa: 0.287
[8]; [11]
  CI: 1.2
  Fa: 0.417
[8]; [12]
  CI: 1.0
  Fa: 0.621
